Reference: patent US9399028B2, “Treatment of drug resistant cancer” (ROCKEFELLER UNIVERSITY (THE), priority 2012, dated 2016)
Where a name gives a salt, the structure may show the parent alone.

Tests used:
ApoE = ApoE expression in vivo (western blot, qRT-PCR) in mouse tissues, white blood cells and tumors; conditions: for ApoE protein expression in systemic adipose, lung, and brain tissues: chow 20 mg/kg for 10 days, western blot; for ApoE transcript levels in circulating white blood cells: diet 20 mg/kg for 10 days
Method: FIG. 29A-K. Therapeutic Delivery of LXR Agonists Upregulates Melanoma-Derived and Systemic ApoE Expression. (FIG. 29A-FIG. 29B) ApoE expression levels, quantified by qRT-PCR, in subcutaneous tumors formed by B16F10 mouse melanoma cells injected into C57BL/6 mice. After 5-mm3 tumor formation, mice were fed a control diet or diet containing GW3965 (20 mg/kg) (FIG. 29A) or T0901317 (20 mg/kg) (FIG. 29B) for 7 days. n=3-4. (FIG. 29C-FIG. 29E) ApoE transcript expression in primary tumors (FIG. 29C), lung metastases (FIG. 29D), and brain metastases (FIG. 29E) formed by MeWo human melanoma cells grafted onto NOD Scid mice that were administered control chow or chow supplemented with GW3965 (20 mg/kg). ApoE levels were assessed on day 35 (FIG. 29C), day 153 (FIG. 29D), and day 34 (FIG. 29E) post-injection of the cancer cells. n=3-5. (FIG. 29F) Relative expression levels of LXRα, LXRβ, and ApoE were determined by qRT-PCR in B16F10 mouse melanoma cells expressing a control hairpin or an shRNA targeting mouse LXRα (sh_mLXRα), mouse LXRβ (sh_mLXRβ), or mouse ApoE (sh_mApoE). (FIG. 29G-FIG. 29H) ApoE (FIG. 29G) and ABCA1 (FIG. 29H) mRNA levels, measured by qRT-PCR, in B16F10 cells expressing a control shRNA or shRNAs targeting mouse LXRβ or mouse ApoE. The cells were treated with DMSO or GW3965 at 5 μM for 48 hours. n=3. (FIG. 29I) ABCA1 mRNA levels, measured by qRT-PCR, in systemic white blood cells extracted from LXRα−/− or LXRβ−/− mice fed a control diet or a GW3965-supplemented diet (20 mg/kg) for 10 days. n=3-4. (FIG. 29J) Relative expression of ApoE mRNA, expressed as the frequency of SAGE tags, in mouse skin and lung tissues was determined using the public mSAGE Expression Matrix database available through the NCI-funded Cancer Genome Anatomy Project (CGAP). (FIG. 29K) Relative expression of ApoE mRNA, determined by qRT-PCR, in MeWo melanoma cells dissociated from lung metastatic nodules (LM2) or primary tumors relative to control unselected MeWo parental cells. n=3.
FIG. 30A-I. LXRβ Agonism Suppresses Melanoma Tumor Growth and Metastasis by Inducing Melanoma-Derived and Systemic ApoE Expression. […] (FIG. 30B) Quantification of ApoE protein expression based on western blots shown in (FIG. 30A). […] (FIG. 30C) Expression levels of ApoE, determined by qRT-PCR, in systemic white blood cells from mice fed a control diet or a diet supplemented with GW3965 or T0901317 at 20 mg/kg for 10 days. n=3-6. […] Once the tumors reached 5-10 mm3 in volume, mice were fed a control diet or a diet supplemented with GW3965 (20 mg/kg) for 7 days, after which final tumor volume was measured. […] (FIG. 30E) ApoE transcript levels, quantified by qRT-PCR, in systemic white blood cells extracted from LXRα−/− or LXRβ−/− mice fed a control diet or a GW3965-supplemented diet (20 mg/kg) for 10 days. n=3-5. […]

[1] = system: human breast, pancreatic, renal, lung cancer and uveal melanoma cell lines; assay: Trans-well matrigel invasion assay, other cancer types; assay type: cell-based
Method: The ability of cancer cells to invade through matrigel in vitro was tested by using a trans-well matrigel invasion chamber system (354480, BD Biosciences). Various cancer cell lines were serum-starved overnight in media containing 0.2% FBS. The following day, invasion chambers were pre-equilibrated prior to the assay by adding 0.5 mL of starvation media to the top and bottom wells. Meanwhile, cancer cells were trypsinized and viable cells were counted using the trypan blue dead cell exclusion dye. Cancer cells were then resuspended at a concentration of 1×10^5 cells/1 mL starvation media, and 0.5 mL of cell suspension, containing 5×10^4 cells, was seeded into each trans-well. […] The basal side of each insert was imaged using an inverted fluorescence microscope (Zeiss Axiovert 40 CFL) at 5× magnification, and the number of DAPI-positive cells was quantified using ImageJ.
The cells were serum starved for 16 hours in 0.2% FBS media in the presence of DMSO or GW3965. […] Meanwhile, cancer cells were trypsinized and viable cells were counted using trypan blue. […] The basal side of each insert was imaged using an inverted fluorescence microscope (Zeiss Axiovert 40 CFL) at 5× magnification, and the number of DAPI-positive cells was quantified using ImageJ.

Compound	ApoE protein expression in systemic adipose, lung, and brain tissues (ApoE)	ApoE transcript levels in circulating white blood cells (ApoE)	tumor cell invasion in renal, pancreatic and lung cancer cells ([1]; RCC, PANC1, H460 cells, 1 μM for 72 hours)	tumor cell invasion across breast, renal cell and pancreatic cancer ([1]; recombinant ApoE3 100 μg/mL)
O=C(O)Cc1cccc(OCCCN(Cc2cccc(C(F)(F)F)c2Cl)CC(c2ccccc2)c2ccccc2)c1 [GW3965 2, 3-[3-[N-(2-Chloro-3-trifluoromethylbenzyl)-(2,2-diphenylethyl)amino]propyloxy]phenylacetic acid hydrochloride]	significantly elevated	upregulated	inhibition	–
O=S(=O)(c1ccccc1)N(CC(F)(F)F)c1ccc(C(O)(C(F)(F)F)C(F)(F)F)cc1 [T0901317 1]	significantly elevated	upregulated	–	–
recombinant human ApoE3: recombinant human ApoE3 (4696, BioVision)	–	–	–	inhibited
